Measured values reported in patent US20230139171A1 (SITA Information Networking Computing UK Limited, priority 2019, published 2023).

Legend:
[1] = target: T1, human TLR7 (Homo sapiens, UniProt Q9NYK1); experiment: TLR7 inhibition reporter assay (HEK-Blue cells, SEAP reporter, gardiquimod stimulation); format: cell-based; details: HEK-Blue cells overexpressing human TLR7, SEAP reporter, gardiquimod 7.5 μM; read-out: TLR7 IC50
T1 construct: host or cells: HEK-Blue cells
T1 sequence (Q9NYK1 27-1049): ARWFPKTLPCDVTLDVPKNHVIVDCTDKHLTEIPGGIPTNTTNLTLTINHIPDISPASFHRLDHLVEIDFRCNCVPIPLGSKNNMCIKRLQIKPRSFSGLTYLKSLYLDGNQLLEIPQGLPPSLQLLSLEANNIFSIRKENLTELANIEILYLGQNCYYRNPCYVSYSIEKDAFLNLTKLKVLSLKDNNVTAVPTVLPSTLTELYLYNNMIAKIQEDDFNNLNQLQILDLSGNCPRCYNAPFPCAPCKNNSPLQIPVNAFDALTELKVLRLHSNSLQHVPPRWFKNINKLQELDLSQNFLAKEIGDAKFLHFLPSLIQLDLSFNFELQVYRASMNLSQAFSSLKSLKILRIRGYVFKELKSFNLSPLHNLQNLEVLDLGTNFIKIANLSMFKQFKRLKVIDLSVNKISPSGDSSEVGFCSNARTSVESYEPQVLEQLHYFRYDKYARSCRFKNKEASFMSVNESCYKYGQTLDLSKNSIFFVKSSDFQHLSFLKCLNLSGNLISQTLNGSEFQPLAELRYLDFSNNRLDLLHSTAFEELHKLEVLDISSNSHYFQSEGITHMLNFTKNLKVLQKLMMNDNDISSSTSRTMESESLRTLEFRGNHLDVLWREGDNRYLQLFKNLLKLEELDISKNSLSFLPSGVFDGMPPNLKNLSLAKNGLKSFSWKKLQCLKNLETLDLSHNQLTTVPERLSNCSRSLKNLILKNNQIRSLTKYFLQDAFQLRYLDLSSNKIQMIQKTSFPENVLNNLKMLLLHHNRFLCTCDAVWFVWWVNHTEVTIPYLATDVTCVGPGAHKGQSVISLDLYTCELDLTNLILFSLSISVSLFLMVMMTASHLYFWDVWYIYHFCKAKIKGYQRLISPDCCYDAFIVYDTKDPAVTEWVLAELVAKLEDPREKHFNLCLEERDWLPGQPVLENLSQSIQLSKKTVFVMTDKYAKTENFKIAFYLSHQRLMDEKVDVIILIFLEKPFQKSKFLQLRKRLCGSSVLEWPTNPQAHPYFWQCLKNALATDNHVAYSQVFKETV
Method: (§1) TLR7/8/9 Inhibition Reporter Assays
(§2) HEK-Blue™-cells (Invivogen) overexpressing human TLR7, TLR8 or TLR9 receptors were used for screening inhibitors of these receptors using an inducible SEAP (secreted embryonic alkaline phosphatase) reporter gene under the control of the IFN-β minimal promoter fused to five NF-κB and AP-1-binding sites. Briefly, cells are seeded into Greiner 384 well plates (15000 cells per well for TLR7, 20,000 for TLR8 and 25,000 for TLR9) and then treated with test compounds in DMSO to yield a final dose response concentration range of 0.05 nM-50 μM. After a 30 minute compound pre-treatment at room temperature, the cells are then stimulated with a TLR7 ligand (gardiquimod at a final concentration of 7.5 μM), TLR8 ligand (R848 at a final concentration of 15.9 μM) or TLR9 ligand (ODN2006 at a final concentration of 5 nM) to activate NF-κB and AP-1 which induce the production of SEAP. After a 22 hour incubation at 37° C., 5% CO2, SEAP levels are determined with the addition of HEK-Blue™ Detection reagent (Invivogen), a cell culture medium that allows for detection of SEAP, according to manufacturer's specifications. The percent inhibition is determined as the % reduction in the HEK-Blue signal present in wells treated with agonist plus DMSO alone compared to wells treated with a known inhibitor.

[2] = target: T2, human TLR8 (Homo sapiens, UniProt Q9NR97); experiment: TLR8 inhibition reporter assay (HEK-Blue cells, SEAP reporter, R848 stimulation); format: cell-based; details: HEK-Blue cells overexpressing human TLR8, SEAP reporter, R848 15.9 μM; read-out: TLR8 IC50
T2 construct: host or cells: HEK-Blue cells
T2 sequence (Q9NR97 27-1041): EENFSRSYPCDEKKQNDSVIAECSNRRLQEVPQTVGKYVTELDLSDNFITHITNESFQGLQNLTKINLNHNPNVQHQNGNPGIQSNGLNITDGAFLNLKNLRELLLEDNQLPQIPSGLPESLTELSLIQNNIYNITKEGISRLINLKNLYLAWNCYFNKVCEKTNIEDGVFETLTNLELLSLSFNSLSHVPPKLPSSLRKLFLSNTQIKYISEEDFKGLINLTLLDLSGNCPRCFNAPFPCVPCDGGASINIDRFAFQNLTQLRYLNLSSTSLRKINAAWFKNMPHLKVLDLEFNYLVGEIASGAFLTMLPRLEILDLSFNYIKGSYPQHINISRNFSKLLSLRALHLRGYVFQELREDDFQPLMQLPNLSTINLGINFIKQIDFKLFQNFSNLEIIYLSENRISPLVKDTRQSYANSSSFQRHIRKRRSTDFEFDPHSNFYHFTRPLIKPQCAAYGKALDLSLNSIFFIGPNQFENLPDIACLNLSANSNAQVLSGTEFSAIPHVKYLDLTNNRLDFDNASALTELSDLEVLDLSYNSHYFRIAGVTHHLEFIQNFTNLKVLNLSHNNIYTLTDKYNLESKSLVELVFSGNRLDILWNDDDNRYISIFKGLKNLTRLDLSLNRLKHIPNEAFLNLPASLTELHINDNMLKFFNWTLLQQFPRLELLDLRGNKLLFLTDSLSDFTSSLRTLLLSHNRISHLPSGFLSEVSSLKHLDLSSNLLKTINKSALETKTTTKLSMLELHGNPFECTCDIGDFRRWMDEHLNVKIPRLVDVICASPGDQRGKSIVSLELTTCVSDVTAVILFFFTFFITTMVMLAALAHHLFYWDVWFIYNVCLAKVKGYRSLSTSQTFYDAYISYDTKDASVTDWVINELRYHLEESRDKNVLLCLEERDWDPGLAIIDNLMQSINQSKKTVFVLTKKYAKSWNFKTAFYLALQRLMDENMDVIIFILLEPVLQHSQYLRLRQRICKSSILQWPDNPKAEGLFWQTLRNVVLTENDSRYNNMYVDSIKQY
Method: as §1, §2

Compound | IC50 [1] | IC50 [2]
CC(C)c1c(-c2cn(C)c3ncccc23)[nH]c2sc(C3CCN(C4COC4)CC3)nc12 [Example 34, 6-isopropyl-5-(1-methyl-1H-pyrrolo[2,3-b]pyridin-3-yl)-2-(1-(oxetan-3-yl)piperidin-4-yl)-4H-pyrrolo[3,2-d]thiazole] | 4.44 nM | 4.94 nM
CC(=O)N1CCC(c2nc3c(C(C)C)c(-c4cn5ncnc5c(C)c4C)[nH]c3s2)CC1 [Example 59, 1-(4-(5-(7,8-dimethyl-[1,2,4]triazolo[1,5-a]pyridin-6-yl)-6-isopropyl-4H-pyrrolo[3,2-d]thiazol-2-yl)piperidin-1-yl)ethan-1-one] | 5.83 nM | 47.2 nM
Cc1c(-c2[nH]c3sc(C(=O)N4CCCC4)nc3c2C(C)C)cn2ncnc2c1C [Example 377, (5-(7,8-dimethyl-[1,2,4]triazolo[1,5-a]pyridin-6-yl)-6-isopropyl-4H-pyrrolo[3,2-d]thiazol-2-yl)(pyrrolidin-1-yl)methanone] | 56.9 nM | 18.2 nM
Cc1c(-c2[nH]c3sc(CNCC(N)=O)nc3c2C(C)C)cn2ncnc2c1C [Example 402, 2-(((5-(7,8-dimethyl-[1,2,4]triazolo[1,5-a]pyridin-6-yl)-6-isopropyl-4H-pyrrolo[3,2-d]thiazol-2-yl)methyl)amino)acetamide] | 35.1 nM | 297 nM
Cc1c(-c2[nH]c3sc(N4CC5(C4)CN(C4COC4)C5)nc3c2C(C)C)cn(C)c(=O)c1C [Example 306, 5-(6-isopropyl-2-(6-(oxetan-3-yl)-2,6-diazaspiro[3.3]heptan-2-yl)-4H-pyrrolo[3,2-d]thiazol-5-yl)-1,3,4-trimethylpyridin-2(1H)-one] | 148 nM | 124 nM
Cc1cc(-c2[nH]c3sc(C(=O)N4CCCC4)nc3c2C(C)C)cn2ncnc12 [Example 393, (6-isopropyl-5-(8-methyl-[1,2,4]triazolo[1,5-a]pyridin-6-yl)-4H-pyrrolo[3,2-d]thiazol-2-yl)(pyrrolidin-1-yl) methanone] | 77.6 nM | 140 nM
CNC(=O)CN1CCC(c2nc3c(C(C)C)c(-c4cn(C)c(=O)c(C)c4C)[nH]c3s2)CC1 [Example 63, 2-(4-(6-isopropyl-5-(1,4,5-trimethyl-6-oxo-1,6-dihydropyridin-3-yl)-4H-pyrrolo[3,2-d]thiazol-2-yl)piperidin-1-yl)-N-methylacetamide] | 24.8 nM | 14.6 nM
Cc1c(-c2[nH]c3sc(C(N)=O)nc3c2C(C)C)cn2ncnc2c1C [Example 385, 5-(7,8-dimethyl-[1,2,4]triazolo[1,5-a]pyridin-6-yl)-6-isopropyl-4H-pyrrolo[3,2-d]thiazole-2-carboxamide] | 58.8 nM | 31.4 nM
Cc1c(-c2[nH]c3sc(C4CCN(CC(=O)N(C)C)CC4)nc3c2C(C)C)cn(C)c(=O)c1C [Example 62, 2-(4-(6-isopropyl-5-(1,4,5-trimethyl-6-oxo-1,6-dihydropyridin-3-yl)-4H-pyrrolo[3,2-d]thiazol-2-yl)piperidin-1-yl)-N,N-dimethylacetamide] | 88.6 nM | 22.3 nM

Results, then the compound that gave them:

IC50 [1] | IC50 [2] | Compound
18.8 nM | 1.7 nM | Cc1c(-c2[nH]c3sc(N4CCN(CC(=O)N(C)C)CC4)nc3c2C(C)C)cn2ncnc2c1C [Example 283, 2-(4-(5-(7,8-dimethyl-[1,2,4]triazolo[1,5-a]pyridin-6-yl)-6-isopropyl-4H-pyrrolo[3,2-d]thiazol-2-yl)piperazin-1-yl)-N,N-dimethylacetamide]
13.9 nM | 18.5 nM | Cc1c(-c2[nH]c3sc(N4CCN(CCS(C)(=O)=O)C[C@H]4C)nc3c2C(C)C)cn2ncnc2c1C [Example 314, (R)-5-(7,8-dimethyl-[1,2,4]triazolo[1,5-a]pyridin-6-yl)-6-isopropyl-2-(2-methyl-4-(2-(methylsulfonyl)ethyl)piperazin-1-yl)-4H-pyrrolo[3,2-d] thiazole]
29.8 nM | 5.33 nM | Cc1c(-c2[nH]c3sc(N4CCN(CCS(C)(=O)=O)CC4)nc3c2C(C)C)cn2ncnc2c1C [Example 282, 5-(7,8-dimethyl-[1,2,4]triazolo[1,5-a]pyridin-6-yl)-6-isopropyl-2-(4-(2-(methylsulfonyl)ethyl)piperazin-1-yl)-4H-pyrrolo[3,2-d]thiazole]
91 nM | 1.85 nM | Cc1c(-c2[nH]c3sc(N4CCN(C5CCC5)C[C@@H]4C)nc3c2C(C)C)cn2ncnc2c1C [Example 349]
25.6 nM | 14.6 nM | Cc1c(-c2[nH]c3sc(N4CCN(C5COC5)CC4)nc3c2C(C)C)cn2ncnc2c1C [Example 286, 5-(7,8-dimethyl-[1,2,4]triazolo[1,5-a]pyridin-6-yl)-6-isopropyl-2-(4-(oxetan-3-yl)piperazin-1-yl)-4H-pyrrolo[3,2-d]thiazole]
19.6 nM | 12.6 nM | CNC(=O)CN1CCN(c2nc3c(C(C)C)c(-c4cn5ncnc5c(C)c4C)[nH]c3s2)[C@@H](C)C1 [Example 342, (S)-2-(4-(5-(7,8-dimethyl-[1,2,4]triazolo[1,5-a]pyridin-6-yl)-6-isopropyl-4H-pyrrolo[3,2-d]thiazol-2-yl)-3-methylpiperazin-1-yl)-N-methylacetamide]
9.6 nM | 5.12 nM | CNC(=O)CN1CCN(c2nc3c(C(C)C)c(-c4cn5ncnc5c(C)c4C)[nH]c3s2)CC1 [Example 284, 2-(4-(5-(7,8-dimethyl-[1,2,4]triazolo[1,5-a]pyridin-6-yl)-6-isopropyl-4H-pyrrolo[3,2-d]thiazol-2-yl)piperazin-1-yl)-N-methylacetamide]
3.71 nM | 1.72 nM | Cc1c(-c2[nH]c3sc(N4CCN(CC(N)=O)C[C@H]4C)nc3c2C(C)C)cn2ncnc2c1C [Example 313, (R)-2-(4-(5-(7,8-dimethyl-[1,2,4]triazolo[1,5-a]pyridin-6-yl)-6-isopropyl-4H-pyrrolo[3,2-d]thiazol-2-yl)-3-methylpiperazin-1-yl)acetamide]
